Article PMC8262356, “SLC26A6-selective inhibitor identified in a small-molecule screen blocks fluid absorption in small intestine” (JCI Insight, 2021)

Target: T1, slc26a4 (Mus musculus, UniProt Q9R155)
T1 construct: expressed in transfected cells; host or cells: FRT cells coexpressing YFP
T1 sequence (Q9R155 1-780): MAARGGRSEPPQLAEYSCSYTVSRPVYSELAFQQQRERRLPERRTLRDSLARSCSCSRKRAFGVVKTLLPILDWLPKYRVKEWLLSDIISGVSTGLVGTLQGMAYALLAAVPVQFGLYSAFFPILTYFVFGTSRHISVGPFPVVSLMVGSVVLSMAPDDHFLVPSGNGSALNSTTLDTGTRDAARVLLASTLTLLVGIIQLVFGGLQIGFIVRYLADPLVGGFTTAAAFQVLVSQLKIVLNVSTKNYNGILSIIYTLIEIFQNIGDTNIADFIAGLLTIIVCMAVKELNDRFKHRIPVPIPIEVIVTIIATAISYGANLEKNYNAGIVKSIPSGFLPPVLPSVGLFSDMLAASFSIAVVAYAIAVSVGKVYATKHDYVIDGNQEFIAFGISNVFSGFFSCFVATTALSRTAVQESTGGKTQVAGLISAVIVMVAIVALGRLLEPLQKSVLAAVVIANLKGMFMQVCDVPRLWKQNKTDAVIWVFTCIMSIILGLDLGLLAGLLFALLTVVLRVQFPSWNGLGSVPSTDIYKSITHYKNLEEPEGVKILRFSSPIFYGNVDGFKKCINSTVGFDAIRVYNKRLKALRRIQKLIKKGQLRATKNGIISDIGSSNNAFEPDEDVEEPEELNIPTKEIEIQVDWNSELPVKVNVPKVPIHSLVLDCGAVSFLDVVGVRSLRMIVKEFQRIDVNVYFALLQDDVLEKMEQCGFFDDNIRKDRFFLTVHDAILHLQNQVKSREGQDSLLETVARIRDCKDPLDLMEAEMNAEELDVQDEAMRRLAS
Assay: Selectivity: Cl-/I- exchange in FRT cells coexpressing YFP and slc26a4
Assay type: cell-based
Details: 25 μM
Description: PAT1inh-B01 selectivity was studied by testing its effects on related SLC26A family anion transporters and the Cl^– channel TMEM16A. These measurements used a similar Cl^–/I^– exchange protocol, but FRT cells separately expressed each of the SLC26A family members or TMEM16A. […] PAT1inh-B01 selectivity was also tested by short-circuit current (Isc) in well-differentiated human bronchial epithelial (HBE) cells, which have a complex ion transport mechanism that includes cystic fibrosis transmembrane conductance regulator (CFTR), epithelial Na^+ channel (ENaC), and Ca^+2-activated chloride channels (CaCCs) ([13]). […] Potential PAT1inh-B01 cytotoxicity was studied in FRT cells.
Figure 3 PAT1inh-B01 selectivity and cytotoxicity. […] Cl^–/I^– exchange or I^– influx measured in FRT cells coexpressing YFP and SLC26A isoforms or TMEM16A, with data shown for 25 μM PAT1inh-B01, DMSO vehicle control, and 500 μM niflumic acid (positive control for SLC26A transporters) or 10 μM TMinh-23 (positive control for TMEM16A). […] (C) (left) Short-circuit current (Isc) in well-differentiated HBE cells measured in the absence (top) and presence (bottom) of 25 μM PAT1inh-B01. […]
YFP-based cellular assays of slc26a3, slc26a4, SLC26A9, and TMEM16A function were performed as described previously ([7]). […] The activities of ENaC, CFTR, and CaCC were determined using well-differentiated HBE cells as described previously ([13]). […]

- inhibition of slc26a4: did not significantly inhibit
Structure (SMILES): Cc1c(Br)c(C(F)(F)F)nn1CC(=O)N1CCc2nc3cc(-c4ccccc4)[nH]n3c(=O)c2C1 [PAT1inh-B01]
